From patent US12595262B2, “PRMT5 inhibitors” (MERCK SHARP & DOHME LLC, priority 2019, dated 2026)

How the values were obtained:
[1] = biological target: T1, PRMT5-MEP50 enzyme complex (Homo sapiens, UniProt O14744); test: PRMT5-MEP50 Enzyme Methylation Assay; type: biochemical; details: recombinant full-length PRMT5-MEP50 1.0 nM, 75 nM biotinylated H4R3(Me1) peptide, 15 μM SAM; 60 minutes pre-incubation, 150 minutes at 37° C.
T1 construct: 1.25 nM of Full-length (FL)-PRMT5-MEP50 enzyme complex; made in house; host or cells: baculovirus-transfected Sf21 cells
Protocol: PRMT5-MEP50 Enzyme Methylation Assay
PRMT5-MEP50 biochemical assay is a direct measurement of the methylation activity of the enzyme complex on a short peptide substrate derived from the N-terminus of H4 histone. Methylation experiment was performed with recombinant PRMT5-MEP50 protein complex. The assessment of inhibitory effect of small molecules was measured by the effectiveness of the compounds to inhibit this reaction (EC50).
In this assay, the potency (EC50) of each compound was determined from a twenty-point (1:2 serial dilution; top compound concentration of 100000 nM) titration curve using the following outlined procedure. To each well of a white ProxiPlus 384 well-plate, 100 nL of compound (1% DMSO in final assay volume of 10 μL) was dispensed, followed by the addition of 8 μL of 1× assay buffer (50 mM Bicine pH 8.0, 1 mM DTT, 0.004% Tween20, 0.01% BSA) containing 1.25 nM of Full-length (FL)-PRMT5-MEP50 enzyme complex (recombinant proteins from baculovirus-transfected Sf21 cells: FL-PRMT5; MW=[…] and FL-MEP50; MW=38614) and 1 μL of 150 μM S-(5′-Adenosyl)-L-Methionine Chloride (SAM). Plates were sealed and placed in a 37° C. humidified chamber for a 60 minutes pre-incubation with compound. Subsequently, each reaction was initiated by the addition of 1 μL 1× assay buffer containing 750 nM biotinylated H4R3(Me1) peptide. The final reaction in each well of 10 μL consists of 1.0 nM PRMT5-MEP50, 75 nM biotinylated-peptide, and 15 μM SAM. Methylation reactions were allowed to proceed for 150 minutes in a sealed plate at 37° C. Reactions were immediately quenched by the addition of 1 μL of 5% formic acid. Plates were then frozen and shipped to SAMDITM Tech Inc. to determine the percent conversion from H4R3(Me1) to H4R3(Me2). Dose-response curves were generated by plotting percent effect (% product conversion; Y-axis) vs. Log10 compound concentrations (X-axis). EC50 values were determined by non-linear regression according to models for sigmoidal (4 parameters) dose-response curves.

PRMT5 = biological target: T2, PRMT5 (Homo sapiens, UniProt O14744); test: PRMT5 Cell Target Engagement (TE) Assay; type: cell-based; details: MCF-7 cells, treated for 3 days; symmetrically dimethylated (SDMA) nuclear proteins by high content imaging
T2 construct: endogenous in cells; host or cells: MCF-7
Source text: PRMT5 Cell Target Engagement (TE) Assay
The PRMT5 TE assay is a biomarker assay for identifying compounds that inhibit symmetric dimethylation of arginine (SDMA) of PRMT5 substrates. The following substrates have been reported for PRMT5: histone H2A and H4 R3, Histone H3 R2, Histone H3 R8, spliceosome Sm proteins, ribosomal protein RPS10, p53, FEN1, nucleoplasmin, nucleolin, EGFR and EBNA. The assay focuses on detecting symmetrically dimethylated nuclear proteins using high content imaging technology. Detection of the expression of symmetrically dimethylated nuclear proteins is through a mixture of primary rabbit monoclonal antibodies to SDMA (CST 13222), which in turn recognized by an Alexafluor 488 dye-conjugated anti-rabbit IgG secondary antibody. The IN Cell Analyzer 2200 or Opera-Phenix measures nuclear Alexafluor 488 fluorescent dye intensity that is directly related to the level of expression of symmetrically dimethylated nuclear proteins at the single cell level. Nuclear AF488 dye intensities are compared to the mean value for DMSO treated cells (MIN) to report percent of inhibition for each compound-treated well.
In this assay, the cell potency (EC50) of each compound was determined from a ten point (1:3 serial dilution; top compound concentration of 10000 nM) titration curve using the following outlined procedure. Each well of a BD falcon collagen coated black/clear bottom 384-well plate was seeded with 4000 MCF-7 cells in 30 μl media and allowed to attach for 5 h. Media is ATCC-formulated Eagle's Minimum Essential Medium, Catalog No. 30-2003. To make the complete growth medium, the following components were added to the base medium: 0.01 mg/mL human recombinant insulin; fetal bovine serum to a final concentration of 10%. Additional 30 µl of media containing 2× compounds were added to each well. Cells were treated for 3 days in 37° C. CO2 incubator. On day 3, cells were fixed with Cytofix, permeabilized with 0.4% Triton-X-100/Cytofix, and washed with D-PBS without Ca/Mg. Cells were blocked with Licor Odessey blocking reagent for 1 h at room temperature, followed by incubation with anti-SDMA (1:1000) antibody at 4° C. overnight. 1° antibody was removed, followed by three washings with DPBS without Ca/Mg and 0.05% Tween20. Hoechst (5 μg/mL), Cell Mask deep stain (1:2000) and Alexa488-conjugated goat anti-rabbit IgG (2 μg/mL) was added for 1 h at room temperature. A final washing step (three washes) was performed before sealing plate for imaging on In Cell Analyzer 2200 or Opera-Phenix. Images from analyzer were uploaded to Columbus (at WP or BOS) for image analysis. IC50 values were determined by 4 parameters robust fit of percent fluorescence units vs. (Log10) compound concentrations.

T2 sequence (O14744 whole entry): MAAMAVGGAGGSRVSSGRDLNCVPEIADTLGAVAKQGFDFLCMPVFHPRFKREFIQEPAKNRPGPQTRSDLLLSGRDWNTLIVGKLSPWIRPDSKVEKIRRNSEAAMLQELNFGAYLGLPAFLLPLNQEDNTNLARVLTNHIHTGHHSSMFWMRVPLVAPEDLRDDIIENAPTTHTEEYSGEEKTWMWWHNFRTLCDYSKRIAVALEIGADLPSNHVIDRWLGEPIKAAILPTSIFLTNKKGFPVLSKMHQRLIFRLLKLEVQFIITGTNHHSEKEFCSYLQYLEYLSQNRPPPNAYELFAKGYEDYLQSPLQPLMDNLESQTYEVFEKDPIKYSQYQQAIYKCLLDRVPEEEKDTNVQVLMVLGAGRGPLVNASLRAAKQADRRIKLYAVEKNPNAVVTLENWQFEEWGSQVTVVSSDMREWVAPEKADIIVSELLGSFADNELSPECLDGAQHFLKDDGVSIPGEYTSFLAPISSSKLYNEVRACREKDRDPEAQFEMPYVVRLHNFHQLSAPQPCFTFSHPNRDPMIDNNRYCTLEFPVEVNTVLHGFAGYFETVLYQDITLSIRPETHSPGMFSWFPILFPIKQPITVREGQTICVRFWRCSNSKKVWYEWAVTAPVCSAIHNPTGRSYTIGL
T2 sequence (Q9BQA1 whole entry partner): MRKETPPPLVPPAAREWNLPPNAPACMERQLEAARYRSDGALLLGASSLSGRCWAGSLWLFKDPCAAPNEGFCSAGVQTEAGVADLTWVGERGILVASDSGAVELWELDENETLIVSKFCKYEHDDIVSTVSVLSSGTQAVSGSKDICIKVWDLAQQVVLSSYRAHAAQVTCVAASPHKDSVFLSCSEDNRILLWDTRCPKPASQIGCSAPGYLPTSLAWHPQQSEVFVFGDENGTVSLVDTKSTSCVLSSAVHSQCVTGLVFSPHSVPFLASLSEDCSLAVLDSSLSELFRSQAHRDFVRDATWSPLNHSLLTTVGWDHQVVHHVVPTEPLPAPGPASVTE
T1 sequence (O14744 whole entry): as the sequence (O14744 whole entry) above
T1 sequence (Q9BQA1 whole entry partner): as the sequence (Q9BQA1 whole entry partner) above

EC50 [1] [nM]	EC50 (PRMT5) [nM]	SMILES
0.9	6.9	CC(=O)N1CCC(Nc2cc(C(=O)N3CC[C@H](N4CCc5ccccc5C4)[C@@H](O)C3)c(F)cn2)CC1 [Example 1, 1-{4-[(4-{[(3S,4S)-4-(3,4-dihydroisoquinolin-2(1H)-yl)-3-hydroxypiperidin-1-yl]carbonyl}-5-fluoropyridin-2-yl)amino]piperidin-1-yl}ethanone]
0.9	2	[2H]C1([2H])c2ccccc2CCN1[C@H]1CCN(C(=O)c2cc(NC3CCN(C(C)=O)CC3)ncc2F)C[C@@H]1O [Example 1b, 1-(4-((4-((3S,4S)-4-(3,4-dihydroisoquinolin-2(1H)-yl-1,1-d2)-3-hydroxypiperidine-1-carbonyl)-5-fluoropyridin-2-yl)amino)piperidin-1-yl)ethan-1-one]
	165	[2H]C1([2H])c2ccccc2CCN1[C@@H]1CCN(C(=O)c2cc(NC3CCN(C(C)=O)CC3)ncc2F)C[C@H]1O [Example 1c, 1-(4-((4-((3R,4R)-4-(3,4-dihydroisoquinolin-2(1H)-yl-1,1-d2)-3-hydroxypiperidine-1-carbonyl)-5-fluoropyridin-2-yl)amino)piperidin-1-yl)ethan-1-one]
1.6	4.7	O=C(c1cn2cc(C3CC3(F)F)cnc2n1)N1CC[C@H](N2CCc3ccccc3C2)[C@@H](O)C1 (stereo partly drawn) [Example 2, (6-(2,2-difluorocyclopropyl)imidazo[1,2-a]pyrimidin-2-yl)((3S,4S)-4-(3,4-dihydroisoquinolin-2(1H)-yl)-3-hydroxypiperidin-1-yl)methanone]
1.3	6.8	O=C(c1cn2cc(C3CC3)cnc2n1)N1CC[C@H](N2CCc3ccccc3C2)[C@@H](O)C1 [Example 3, (6-cyclopropylimidazo[1,2-a]pyrimidin-2-yl)((3S,4S)-4-(3,4-dihydroisoquinolin-2(1H)-yl)-3-hydroxypiperidin-1-yl)methanone]
1.5	15	CCc1nc2nc(C(=O)N3CC[C@H](N4CCc5ccccc5C4)[C@@H](O)C3)cn2cc1Br [Example 4, (6-bromo-7-ethylimidazo[1,2-a]pyrimidin-2-yl)((3S,4S)-4-(3,4-dihydroisoquinolin-2(1H)-yl)-3-hydroxypiperidin-1-yl)methanone]
